Source: patent US20250140406A1, “CLASSIFYING TUMORS AND PREDICTING RESPONSIVENESS” (Oncocyte Corporation, priority 2022, published 2025)
Where two headings read alike, the source gives them in different places.

Test system: cancer cell lines classified IM, MSL, M
Experiment: PRISM screen compound sensitivity correlated with IM, MSL and M subtype of cell lines (101 gene signature)
Assay type: cell-based
[1] = subtype (IM, MSL or M) with which PRISM compound sensitivity is negatively correlated, training cell set, 101 gene signature
[2] = subtype (IM, MSL or M) assigned to the compound by negative correlation of PRISM sensitivity with subtype, training cell set (371 cell lines), 101 gene signature
[3] = subtype (IM, MSL or M) with which compound sensitivity is negatively correlated, training cell set (371 cell lines), 101 gene signature
[4] = subtype (IM, MSL, M) with which compound sensitivity correlates, test set
[5] = subtype (IM, MSL, M) with which compound sensitivity correlates, training set
[6] = subtype (IM, MSL or M) the PRISM compound sensitivity is associated with, training cell set (371 cell lines), 101 gene signature
[7] = subtype with which compound sensitivity correlates, test cell lines
[8] = subtype with which compound sensitivity correlates, training cell lines

SMILES	TNBCType train [1]	TNBCType train [2]	also measured
Cc1ccc2c(=O)c3cccc(CC(=O)O)c3oc2c1C [ASA-404]	MSL		
Cc1cc(Nc2cc(N3CCN(C)CC3)nc(/C=C/c3ccccc3)n2)n[nH]1 [ENMD-2076]		MSL	
CN(C)c1cccc(-c2c3c(=O)n(-c4ccccc4Cl)[nH]c3cc(=O)n2C)c1 [GKT137831]		MSL	
CCCCOc1nc(N)c2c(n1)N(Cc1cccc(CN3CCCC3)c1)CC(=O)N2 [GS-9620]		MSL	
CC1=C(C(=O)Nc2cc3cn[nH]c3cc2F)C(c2ccc(C(F)(F)F)cc2)CC(=O)N1 (centres unmarked) [GSK429286A]			TNBCType train [3]: MSL
O=C(O)CCc1ccc(NCc2cccc(Oc3ccccc3)c2)cc1 [GW-9508]		MSL	
CC(C)NC(=O)COc1cccc(-c2nc(Nc3ccc4[nH]ncc4c3)c3ccccc3n2)c1 [KD025]		MSL	
CC(O)c1cc(C(=O)N[C@@H](C)Cn2ccc(-c3ccc(C#N)c(Cl)c3)n2)[nH]n1 (some centres unmarked) [ODM-201]			TNBCType train [3]: MSL
Nc1cc(F)ccc1NC(=O)/C=C/c1cnn(C/C=C/c2ccccc2)c1 [RGFP966]		MSL	
O=C(Nc1ccccc1F)N[C@H]1N=C(c2ccccc2)c2ccccc2NC1=O [RSV604]	MSL		TNBCType test [4]: MSL; TNBCType train [5]: MSL
OC1CCC(Nc2nc(-c3ccccc3)nc3[nH]ccc23)CC1 (centres unmarked) [SLV-320]	MSL		
Cc1ccc(-c2ccc(C)cn2)nc1 [abametapir]		MSL	
CCOC(=O)COc1ccc2c(c1)C[C@@H](NC[C@H](O)c1cccc(Cl)c1)CC2 [amibegron]	MSL		
CC(CC(C(N)=O)(c1ccccc1)c1ccccc1)N(C)C (centres unmarked) [aminopentamide]			TNBCType train [3]: MSL
CC1(C)S[C@@H]2[C@H](NC(=O)[C@H](N)c3ccccc3)C(=O)N2[C@H]1C(=O)O [ampicillin]		MSL	
Nc1ccn([C@H]2CO[C@@H](CO)S2)c(=O)n1 [apricitabine]		MSL	
CN1CC2c3ccccc3Oc3ccc(Cl)cc3C2C1 (centres unmarked) [asenapine]			TNBCType train [6]: MSL
CCOC(=O)OC(C)OC(=O)[C@@H]1N2C(=O)[C@@H](NC(=O)[C@H](N)c3ccccc3)[C@H]2SC1(C)C (some centres unmarked) [bacampicillin]			TNBCType train [3]: MSL
O=C(/C=C/c1ccc(O)c(O)c1)c1ccc(O)cc1O [butein]			TNBCType train [3]: MSL
O=C(/C=C/c1ccc(O)c(O)c1)OCCc1ccccc1 [caffeic-acid-phenethyl-ester]			TNBCType train [6]: MSL

SMILES	TNBCType train [1]	TNBCType train [2]	also measured
CC(C)NCC(O)COc1cccc2[nH]c3ccccc3c12 (centres unmarked) [carazolol]			TNBCType train [3]: MSL
CCN(CC)CCn1c(=O)c(Cc2ccc(OC)cc2)nc2ccccc21 [caroverine]		MSL	
CC(=O)OCC1=C(C(=O)O)N2C(=O)[C@@H](NC(=O)Cc3cccs3)[C@H]2SC1 [cephalothin]	MSL		
Oc1c(Cl)cc(Cl)c2cccnc12 [chloroxine]			TNBCType train [3]: MSL
CC(C)NC(=N)NC(=N)Nc1ccc(Cl)c(Cl)c1 [chlorproguanil]	MSL		
CC(C)(Oc1ccc(Cl)cc1)C(=O)O [clofibric-acid]			TNBCType train [3]: MSL
N#CCC(=O)NN [cyacetacide]	MSL		
O=C1c2cccc(O)c2C(=O)c2c(O)cccc21 [dantron]			TNBCType train [3]: MSL
CC[C@H](CC[C@@H](C)[C@H]1CC[C@H]2[C@@H]3CC=C4C[C@@H](O[C@@H]5O[C@H](CO)[C@@H](O)[C@H](O)[C@H]5O)CC[C@]4(C)[C@H]3CC[C@]12C)C(C)C [daucosterol]			TNBCType train [3]: MSL
N=C(N)N1CCc2ccccc2C1 [debrisoquin]		MSL	
NS(=O)(=O)c1cc(Cl)c(Cl)c(S(N)(=O)=O)c1 [diclofenamide]		MSL	
Cc1ccc2c(c1)[C@]13CCCC[C@@H]1[C@H](C2)N(C)CC3 [dimemorfan]	MSL		
N[C@H](C(=O)O)[C@H](O)c1ccc(O)c(O)c1 [droxidopa]	MSL		
CSc1ccc(C(=O)c2[nH]c(=O)[nH]c2C)cc1 [enoximone]	MSL		
COc1cc(OC)cc(N(CCNC(C)C)c2ccc3ncc(-c4cnn(C)c4)nc3c2)c1 [erdafitinib]		MSL	TNBCType test [4]: MSL/M; TNBCType train [5]: MSL; TNBCType test [7]: MSL/M; TNBCType train [8]: MSL
O=C(Cn1ccnc1[N+](=O)[O-])NCCO [etanidazole]			TNBCType train [6]: MSL
COc1cc([C@@H]2c3cc4c(cc3[C@@H](O[C@@H]3O[C@@H]5CO[C@@H](C)O[C@H]5[C@H](O)[C@H]3O)[C@H]3COC(=O)[C@H]23)OCO4)cc(OC)c1OP(=O)(O)O [etoposide-phosphate]		MSL	
CC1=C(CC(=O)O)c2cc(F)ccc2/C1=C\c1ccc(S(C)(=O)=O)cc1 [exisulind]	MSL		
O=C(OCC(O)CO)c1ccccc1Nc1ccnc2c(C(F)(F)F)cccc12 (centres unmarked) [floctafenine]			TNBCType train [3]: MSL
CCOC(=O)c1ncn2c1CN(C)C(=O)c1cc(F)ccc1-2 [flumazenil]			TNBCType train [6]: MSL

SMILES	TNBCType train [1]	TNBCType train [2]	also measured
O=C(O)c1ccccc1OP(=O)(O)O [fosfosal]	MSL		
O=C1NC(c2ccccc2)(c2ccccc2)C(=O)N1COP(=O)(O)O [fosphenytoin]	MSL		
CC(C)(CO)CCCCCCC(C)(C)CO [gemcadiol]	MSL		
O=c1[nH]cnc2nc[nH]c12 [hypoxanthine]			TNBCType train [3]: MSL
Oc1ccc(C2=Cc3ccc(O)cc3OC2)cc1 [idronoxil]		MSL	
C[C@@H](c1nc(-c2ccc(C#N)cc2)cs1)[C@](O)(Cn1cncn1)c1cc(F)ccc1F [isavuconazole]			TNBCType train [3]: MSL
CC(C(=O)O)c1cccc(C(=O)c2ccccc2)c1 (centres unmarked) [ketoprofen]			TNBCType train [3]: MSL
COc1c2occc2c(OC)c2c(=O)cc(C)oc12 [khellin]		MSL	
COc1cc2nccc(Oc3ccc(NC(=O)NC4CC4)c(Cl)c3)c2cc1C(N)=O [lenvatinib]	MSL		
CCN1CCC[C@H]1CNC(=O)c1cc(S(N)(=O)=O)ccc1OC [levosulpiride]	MSL		
Cc1[nH]cnc1-c1ccc(Cl)cc1 [lofemizole]			TNBCType train [3]: MSL
CNC(=O)c1cccc2cc(Oc3ccnc4cc(OCC5(N)CC5)c(OC)cc34)ccc12 [lucitanib]	MSL		
O=P(O)(O)CP(=O)(O)O [medronic-acid]			TNBCType train [6]: MSL
CC[C@H](C)C(=O)O[C@H]1CCC=C2C=C[C@H](C)[C@H](CC[C@@H]3C[C@@H](O)CC(=O)O3)[C@H]21 [mevastatin]			TNBCType train [6]: MSL; TNBCType test [7]: MSL; TNBCType train [8]: MSL
CCCOc1ccc(S(=O)(=O)N2CCN(CCO)CC2)cc1-c1nc2c(CCC)cn(CC)c2c(=O)[nH]1 [mirodenafil]		MSL	
COCC(O)Cn1ccnc1[N+](=O)[O-] (centres unmarked) [misonidazole]			TNBCType train: MSL
COC(=O)c1ccc2c(c1)NC(=O)/C2=C(\Nc1ccc(N(C)C(=O)CN2CCN(C)CC2)cc1)c1ccccc1 [nintedanib]	MSL		
O=c1[nH]c2ccccc2n1C1CCN(CCOc2ccccc2)CC1 [oxiperomide]			TNBCType test [4]: MSL/M
COc1cccc(C(=O)CCN[C@@H](C)[C@H](O)c2ccccc2)c1 [oxyfedrine]		MSL	
CC(C)Oc1ccc(-c2nc(-c3cccc4c3CC[C@@H]4NCCO)no2)cc1C#N [ozanimod]	MSL		
